Results reported in patent US5191079A, “Quinolinecarboxylic acid derivatives” (priority 1990, dated 1993).
Values after ≈ are worked out from the molar mass of the structure shown. Read-outs that look alike come from different tables or passages of the source.

Key:
Format in all cases: cell-based
[1] = system: clinically isolated Staphylococcus epidermidis; test: In vitro antibacterial activity against clinical isolates, Experiment 2; conditions: Staphylococcus epidermidis; for MIC90: 90% of strains, read-out: MIC90
Outline: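 Clinical isolates collected Nov. 1988 to Jun. 1989 were precultured in sensitivity test broth. MIC was determined on sensitivity test agar. Compound standard solution was 1000 μg/ml (stock) in sterilized distilled water.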

[2] = system: Pseudomonas aeruginosa NCTC 10490; test: MIC, Experiment 1; conditions: NCTC10490, P. aeruginosa NCTC 10490, Gram -, read-out: Min. inhib. concentr. (MIC)
Outline: (§1)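 MIC was determined by the Japan Society of Chemotherapy agar dilution method, working from 1000 μg/ml standard solutions (DMSO or water stocks). S. pneumoniae was precultured in brain heart infusion broth and tested on heart infusion agar with 5% defibrinated horse blood. Other strains used sensitivity test broth and sensitivity test agar.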

[3] = system: Staphylococcus aureus FDA 243; test: MIC, Experiment 1; conditions: FDA243, S. aureus FDA 243, Gram +, read-out: Min. inhib. concentr. (MIC)
Outline: (§2)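 Stock solutions (5000 μg/ml, in DMSO or water) were diluted to 1000 μg/ml working standards. MICs were measured per the Japan Society of Chemotherapy procedure, with media matched to each organism: blood-supplemented heart infusion agar for S. pneumoniae and sensitivity test agar for the remaining strains.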

[4] = system: Staphylococcus aureus ATCC 9144; test: MIC, Experiment 1; conditions: ATCC9144, S. aureus ATCC 9144, Gram +, read-out: Min. inhib. concentr. (MIC)
Outline: as §2

[5] = system: Bacillus cereus IAM 1029; test: MIC, Experiment 1; conditions: IAM1029, B. cereus IAM 1029, Gram +, read-out: Min. inhib. concentr. (MIC)
Outline: as §2

[6] = system: Staphylococcus aureus IID 803; test: MIC, Experiment 1; conditions: IID803, S. aureus IID 803, Gram +, read-out: Min. inhib. concentr. (MIC)
Outline: as §2

[7] = system: Acinetobacter calcoaceticus Ac 54; test: MIC, Experiment 1; conditions: AC54, A. calcoaceticus Ac 54, Gram -, read-out: Min. inhib. concentr. (MIC)
Outline: as §1

[8] = system: Staphylococcus aureus Cowan I (IID 975); test: MIC, Experiment 1; conditions: IID975, S. aureus Cowan I (IID 975), Gram +, read-out: Min. inhib. concentr. (MIC)
Outline: as §2

[9] = system: Klebsiella pneumoniae PCI-602; test: MIC, Experiment 1; conditions: PCI602, K. pneumoniae PCI-602, Gram -, read-out: Min. inhib. concentr. (MIC)
Outline: as §1

[10] = system: Escherichia coli NIHJ JC-2; test: MIC, Experiment 1; conditions: NIHJJC2, E. coli NIHJ JC-2, Gram -, read-out: Min. inhib. concentr. (MIC)
Outline: as §1

[11] = system: Staphylococcus aureus MS-353; test: MIC, Experiment 1; conditions: MS353, S. aureus MS-353, Gram +, read-out: Min. inhib. concentr. (MIC)
Outline: as §2

[12] = system: Enterobacter cloacae 963; test: MIC, Experiment 1; conditions: E. cloacae 963, Gram -, read-out: Min. inhib. concentr. (MIC)
Outline: as §1

[13] = system: Staphylococcus aureus FDA 209P JC-1; test: MIC, Experiment 1; conditions: FDA209P, S. aureus FDA 209P JC-1, Gram +, read-out: Min. inhib. concentr. (MIC)
Outline: as §2

[14] = system: Streptococcus pneumoniae IID 552; test: MIC, Experiment 1; conditions: IID552, S. pneumoniae IID 552, Gram +, agar with 5% defibrinated horse blood, read-out: Min. inhib. concentr. (MIC)
Outline: as §2

[15] = system: Streptococcus pyogenes Su; test: MIC, Experiment 1; conditions: S. pyogenes Su, Gram +, agar with 5% defibrinated horse blood, read-out: Min. inhib. concentr. (MIC)
Outline: (§3)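 Stocks: 5000 μg/ml in DMSO or sterile distilled water; standard: 1000 μg/ml after water dilution. Method: Japan Society of Chemotherapy.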

[16] = system: Bacillus subtilis ATCC 6633; test: MIC, Experiment 1; conditions: ATCC6633, B. subtilis ATCC 6633, Gram +, read-out: Min. inhib. concentr. (MIC)
Outline: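 Following the Japan Society of Chemotherapy standard, compounds were diluted in water to 1000 μg/ml standard solutions and tested on agar plates. Sensitivity test broth and agar served the staphylococcal and Bacillus strains. Pneumococci were grown in brain heart infusion broth before testing on heart infusion agar with 5% horse blood.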

[17] = system: Streptococcus pyogenes Cook; test: MIC, Experiment 1; conditions: S. pyogenes Cook, Gram +, agar with 5% defibrinated horse blood, read-out: Min. inhib. concentr. (MIC)
Outline: as §3

[18] = system: Streptococcus pyogenes Sv; test: MIC, Experiment 1; conditions: S. pyogenes Sv, Gram +, agar with 5% defibrinated horse blood, read-out: Min. inhib. concentr. (MIC)
Outline: as §3

[19] = system: Proteus mirabilis IFO 3849; test: MIC, Experiment 1; conditions: IFO3849, P. mirabilis IFO 3849, Gram -, read-out: Min. inhib. concentr. (MIC)
Outline: as §1

[20] = system: Streptococcus pneumoniae IID 554; test: MIC, Experiment 1; conditions: IID554, S. pneumoniae IID 554, Gram +, agar with 5% defibrinated horse blood, read-out: Min. inhib. concentr. (MIC)
Outline: as §2

[21] = system: Staphylococcus aureus Terajima (IID 670); test: MIC, Experiment 1; conditions: IID670, S. aureus Terajima (IID 670), Gram +, read-out: Min. inhib. concentr. (MIC)
Outline: as §2

[22] = system: Micrococcus luteus ATCC 9341; test: MIC, Experiment 1; conditions: ATCC9341, M. luteus ATCC 9341, Gram +, read-out: Min. inhib. concentr. (MIC)
Outline: as §1

[23] = 25 clinical strains S. epidermidis

| Compound | MIC [1, 23] [µg/mL] | MIC90 [1, 23] [µg/mL] | MIC [2] [µg/mL] | MIC [3] [µg/mL] | MIC [4] [µg/mL] | MIC [5] [µg/mL] | MIC [6] [µg/mL] | MIC [7] [µg/mL] | MIC [8] [µg/mL] | MIC [9] [µg/mL] | MIC [10] [µg/mL] | MIC [11] [µg/mL] | MIC [12] [µg/mL] | MIC [13] [µg/mL] | MIC [14] [µg/mL] | MIC [15] [µg/mL] | MIC [16] [µg/mL] | MIC [17] [µg/mL] | MIC [18] [µg/mL] | MIC [19] [µg/mL] | other results |
| --- | --- | --- | --- | --- | --- | --- | --- | --- | --- | --- | --- | --- | --- | --- | --- | --- | --- | --- | --- | --- | --- |
| CCOCC1CN(c2c(F)cc3c(=O)c(C(=O)O)c4scc5n4c3c2N(C)C5)CCO1 (stereo not drawn) [Compound (Q), 9,1-(Methylimino)methano-7-fluoro-8-(2-ethoxymethylmorpholino)-5-oxo-5H-thiazolo[3,2-a]quinoline-4-carboxylic acid] | 0.006 to 0.78 (≈ 0.0134 to 1.74 µM) | 0.39 (≈ 0.872 µM) | 1.56 (≈ 3.49 µM) | 0.05 (≈ 0.112 µM) | 0.025 (≈ 0.0559 µM) | 0.1 (≈ 0.223 µM) | 0.05 (≈ 0.112 µM) | 0.05 (≈ 0.112 µM) | 0.05 (≈ 0.112 µM) | 0.2 (≈ 0.447 µM) | 0.78 (≈ 1.74 µM) | 0.1 (≈ 0.223 µM) | 1.56 (≈ 3.49 µM) | 0.1 (≈ 0.223 µM) | 0.39 (≈ 0.872 µM) | 0.2 (≈ 0.447 µM) | 0.05 (≈ 0.112 µM) | 0.2 (≈ 0.447 µM) | 0.39 (≈ 0.872 µM) | 1.56 (≈ 3.49 µM) | MIC50 [1]: 0.025 µg/mL (≈ 0.0559 µM); MIC [20]: 0.39 µg/mL (≈ 0.872 µM); MIC [21]: 0.1 µg/mL (≈ 0.223 µM); MIC [22]: 0.39 µg/mL (≈ 0.872 µM) |
| CN1Cc2csc3c(C(=O)O)c(=O)c4cc(F)c(N5CCO[C@H](CO)C5)c1c4n23 [Compound (M), 9,1-(Methylimino)methano-7-fluoro-8-[ (2S)-2-hydroxymethylmorpholino]-5-oxo-5H-thiazolo[3,2-a]quinoline-4-carboxylic acid] | 0.006 to 0.78 (≈ 0.0143 to 1.86 µM) | 0.39 (≈ 0.93 µM) | 0.39 (≈ 0.93 µM) | ≤ 0.006 | ≤ 0.006 | 0.025 (≈ 0.0596 µM) | 0.013 (≈ 0.031 µM) | ≤ 0.006 | 0.013 (≈ 0.031 µM) | ≤ 0.006 | 0.1 (≈ 0.238 µM) | 0.025 (≈ 0.0596 µM) | 0.2 (≈ 0.477 µM) | 0.013 (≈ 0.031 µM) | 0.05 (≈ 0.119 µM) | 0.025 (≈ 0.0596 µM) | ≤ 0.006 | 0.05 (≈ 0.119 µM) | 0.05 (≈ 0.119 µM) | 0.39 (≈ 0.93 µM) | MIC50 [1]: 0.025 µg/mL (≈ 0.0596 µM); MIC [20]: 0.05 µg/mL (≈ 0.119 µM); MIC [21]: 0.025 µg/mL (≈ 0.0596 µM); MIC [22]: 0.2 µg/mL (≈ 0.477 µM) |
| CC1CN(c2c(F)cc3c(=O)c(C(=O)O)c4scc5n4c3c2N(C)C5)CCO1 (stereo not drawn) [Compound (A), 9,1-(Methylimino)methano-7-fluoro-8-(2-methylmorpholino)-5-oxo-5H-thiazolo[3,2-a]quinoline-4-carboxylic acid] | 0.006 to 0.39 (≈ 0.0149 to 0.967 µM) | 0.2 (≈ 0.496 µM) | 0.39 (≈ 0.967 µM) | ≤ 0.006 | 0.013 (≈ 0.0322 µM) | 0.013 (≈ 0.0322 µM) | ≤ 0.006 | ≤ 0.006 | 0.013 (≈ 0.0322 µM) | ≤ 0.006 | 0.1 (≈ 0.248 µM) | 0.013 (≈ 0.0322 µM) | 0.2 (≈ 0.496 µM) | 0.013 (≈ 0.0322 µM) | 0.013 (≈ 0.0322 µM) | 0.025 (≈ 0.062 µM) | ≤ 0.006 | 0.025 (≈ 0.062 µM) | 0.025 (≈ 0.062 µM) | 0.2 (≈ 0.496 µM) | MIC50 ([1]; 25 clinical strains S. epidermidis, 50% of strains, read-out: MIC50): 0.013 µg/mL (≈ 0.0322 µM); MIC [20]: 0.05 µg/mL (≈ 0.124 µM); MIC [21]: 0.013 µg/mL (≈ 0.0322 µM); MIC [22]: 0.1 µg/mL (≈ 0.248 µM) |
